Laboratory results published in patent publication US20220175974A1, “TARGETING COMPOUNDS FOR CANCERS SELECTED FROM ESOPHAGUS, PHARYNX AND LARYNX, LUNG, BRAIN, AND INTESTINES” (HQ MEDICAL NETHERLANDS B.V., priority 2019, published 2022).

How the values were obtained:
[1] = tested on: intracellular proteins, including tubulin and actin; test: binding of cyanine targeting molecules to intracellular proteins
From the text: (§1) The present targeting molecule is very selective and very specific in binding to necrotic cells. […] For the present invention four specific cyanines are selected, namely HQ4, HQ5, CW-800 and ZW-800. These molecules are found to have a high affinity towards the intracellular proteins, including tubulin and actin. […] As a result very low concentrations c.q. amounts of the present system may be used to provide advantageous effects thereof. It is noted that apoptosis specific probes, in contrast to necrosis specific probes will also target healthy tissue as apoptosis is involved in normal tissue turnover. The present cyanine is attached to a second entity, namely a chelator, wherein the chelator is selected from DOTA and NOTA (DOTA: 1,4,7,10-Tetraazacyclododecane-1,4,7,10-tetraacetic acid and NOTA: 1,4,7-triazacyclononane-N,N′,N″-triacetic acid). Attached to the chelator is attached a third entity, namely a radionuclide selected from Cu, In, Gd, Ga, Lu, Y, I, and Zr. The present system is found to be effective as a medicament, also referred to as drug, for cancers selected from esophagus, pharynx and larynx, lung, brain, and intestines. These cancers are considered to relate to and being associated with the Central Nervous system, the respiratory tract, the gastro-intestinal tract, […], and head-neck region, respectively. […]

[2] = clearance of the cyanines in the human body; assay type: in vivo
From the text: as §1

CC1(C)C(/C=C/C2=C(Oc3ccc(S(=O)(=O)O)cc3)C(=C/C=C3/N(CCCCS(=O)(=O)O)c4ccc(S(=O)(=O)[O-])cc4C3(C)C)/CCC2)=[N+](CCCCCC(=O)O)c2ccc(S(=O)(=O)O)cc21 [CW-800]
affinity towards the intracellular proteins [1]: high affinity
clearance in the human body [2]: cleared in the human body specifically well
